“And” between values parts separate entries of the source, which are not always exact repeats. Equal entries are not always repeated.
Conditions: transient hot wire

O=C(C(F)(F)C(F)(F)F)C(F)(C(F)(F)F)C(F)(F)F [dodecafluoro-2-methylpentan-3-one]
Conditions	thermal conductivity
359 K, 91 kPa, Gas	0.0172 W/m/K and 0.01701 W/m/K
359.01 K, 17992 kPa, Liquid	0.05723 W/m/K
359.02 K, 33597 kPa, Liquid	0.06346 W/m/K
359.03 K, 33605 kPa, Liquid	0.06342 W/m/K
359.05 K, 56095 kPa, Liquid	0.07054 W/m/K
359.05 K, 56112 kPa, Liquid	0.07057 W/m/K
359.07 K, 256 kPa, Gas	0.0162 W/m/K
359.07 K, 257 kPa, Gas	0.01618 W/m/K
359.07 K, 11964 kPa, Liquid	0.05443 W/m/K
359.07 K, 11965 kPa, Liquid	0.05441 W/m/K
359.13 K, 188 kPa, Gas	0.01636 W/m/K
359.13 K, 24956 kPa, Liquid	0.06016 W/m/K
359.14 K, 7109 kPa, Liquid	0.05182 W/m/K
359.14 K, 7110 kPa, Liquid	0.05179 W/m/K
359.14 K, 24956 kPa, Liquid	0.06017 W/m/K
359.14 K, 43845 kPa, Liquid	0.06681 W/m/K
359.14 K, 43855 kPa, Liquid	0.06693 W/m/K
359.16 K, 26 kPa, Gas	0.01687 W/m/K
359.16 K, 67834 kPa, Liquid	0.07385 W/m/K
359.17 K, 67856 kPa, Liquid	0.07389 W/m/K
359.19 K, 3417 kPa, Liquid	0.04968 W/m/K
359.19 K, 3419 kPa, Liquid	0.04955 W/m/K
359.22 K, 17993 kPa, Liquid	0.05729 W/m/K and 0.05726 W/m/K
359.22 K, 33590 kPa, Liquid	0.06336 W/m/K
359.23 K, 33591 kPa, Liquid	0.06345 W/m/K
359.24 K, 91 kPa, Gas	0.01701 W/m/K and 0.01691 W/m/K
359.24 K, 56073 kPa, Liquid	0.07065 W/m/K
359.24 K, 56086 kPa, Liquid	0.07061 W/m/K
359.27 K, 352 kPa, Liquid	0.04733 W/m/K and 0.04736 W/m/K
359.28 K, 352 kPa, Liquid	0.04735 W/m/K
359.29 K, 352 kPa, Liquid	0.04741 W/m/K
359.29 K, 11963 kPa, Liquid	0.05419 W/m/K
359.29 K, 11964 kPa, Liquid	0.05442 W/m/K
359.3 K, 256 kPa, Gas	0.01611 W/m/K
359.31 K, 256 kPa, Gas	0.01615 W/m/K
359.32 K, 43840 kPa, Liquid	0.06681 W/m/K
359.33 K, 24951 kPa, Liquid	0.06022 W/m/K
359.34 K, 24951 kPa, Liquid	0.06017 W/m/K
359.34 K, 43843 kPa, Liquid	0.06687 W/m/K
359.35 K, 67807 kPa, Liquid	0.07425 W/m/K
359.36 K, 7099 kPa, Liquid	0.0518 W/m/K
359.36 K, 67822 kPa, Liquid	0.07392 W/m/K
359.37 K, 187 kPa, Gas	0.01646 W/m/K
359.37 K, 7108 kPa, Liquid	0.05182 W/m/K
359.38 K, 187 kPa, Gas	0.01639 W/m/K
359.4 K, 26 kPa, Gas	0.01671 W/m/K
359.41 K, 26 kPa, Gas	0.01672 W/m/K
359.42 K, 3418 kPa, Liquid	0.04952 W/m/K
359.42 K, 3419 kPa, Liquid	0.04953 W/m/K
359.42 K, 33575 kPa, Liquid	0.06335 W/m/K
359.43 K, 33582 kPa, Liquid	0.06336 W/m/K
359.43 K, 56047 kPa, Liquid	0.07056 W/m/K
359.44 K, 17994 kPa, Liquid	0.05721 W/m/K
359.44 K, 18001 kPa, Liquid	0.05746 W/m/K
359.44 K, 56060 kPa, Liquid	0.07057 W/m/K
359.5 K, 91 kPa, Gas	0.01707 W/m/K
359.51 K, 91 kPa, Gas	0.017 W/m/K
359.51 K, 11963 kPa, Liquid	0.05441 W/m/K
359.52 K, 352 kPa, Liquid	0.04737 W/m/K and 0.04738 W/m/K
359.52 K, 353 kPa, Liquid	0.04735 W/m/K
359.52 K, 11964 kPa, Liquid	0.05441 W/m/K
359.53 K, 352 kPa, Liquid	0.04692 W/m/K
359.54 K, 43829 kPa, Liquid	0.06685 W/m/K
359.54 K, 43830 kPa, Liquid	0.06684 W/m/K
359.55 K, 24946 kPa, Liquid	0.06014 W/m/K
359.55 K, 24949 kPa, Liquid	0.06011 W/m/K
359.56 K, 256 kPa, Gas	0.01628 W/m/K
359.57 K, 256 kPa, Gas	0.01631 W/m/K
359.6 K, 7096 kPa, Liquid	0.05174 W/m/K
359.6 K, 7098 kPa, Liquid	0.05175 W/m/K
359.63 K, 33565 kPa, Liquid	0.06333 W/m/K
359.64 K, 187 kPa, Gas	0.01647 W/m/K and 0.01644 W/m/K
359.64 K, 33572 kPa, Liquid	0.06333 W/m/K
359.66 K, 18006 kPa, Liquid	0.0572 W/m/K
359.67 K, 3420 kPa, Liquid	0.04948 W/m/K
359.67 K, 3421 kPa, Liquid	0.04951 W/m/K
359.67 K, 18004 kPa, Liquid	0.05719 W/m/K
359.7 K, 26 kPa, Gas	0.0168 W/m/K and 0.01681 W/m/K
359.75 K, 11967 kPa, Liquid	0.05434 W/m/K
359.76 K, 11965 kPa, Liquid	0.05435 W/m/K
359.77 K, 353 kPa, Liquid	0.04733 W/m/K
359.78 K, 352 kPa, Liquid	0.0473 W/m/K and 0.04737 W/m/K
359.78 K, 353 kPa, Liquid	0.0473 W/m/K
359.78 K, 24941 kPa, Liquid	0.06008 W/m/K

— the NIST ThermoML archive (doi:10.1021/acs.jced.8b00132)
